Experiment [1] has as its system nif operon structural genes (nifH, nifD, and nifK). In words: RNA-seq of Azotobacter vinlandii. The format is cell-based. The conditions noted are these: 25 ug/mL, nitrogen free media, 48 h, RNA-seq (FPKM). As to the method:
Global gene expression profiles of Azotobacter vinlandii grown in nitrogen free media were compared with and without AB09 treatment using RNA sequencing (RNA-seq).
A starter liquid culture of A. vinlandii in Burks-N media (at OD600=0.02) was divided into six flasks. Three flasks received AB09 at 25 ug/mL and three received a mock treatment. RNA was collected at 48 h of growth. One mL of 48 h cultures of Azotobacter vinlandii were pelleted for 3 minutes as 13,000 rpm. Supernatant was removed and pellets were flash frozen in liquid nitrogen. RNA was extracted with the Norgen RNA extraction kit. Ribo-depletion and sequencing libraries were constructed by Seqmatic, Inc. (Fremont, CA). Illumina single-end reads of 150 nt were mapped using bowtie (-v 2 -k2 -chunkmbs 3000) to the Azotobacter vinelandii CA (ASM38033v1) cds sequences. Custom perl scripts were used to extract the uniquely mapped reads and calculate the read count per million mapped reads (multi and uniquely mapped) per kilobase of gene for each gene.

The next experiment deals with wheat. Description: Wheat growth on nitrogen free media with nitrogen fixing bacterium. The following applies: AB09 in combination with a nitrogen fixing bacterium, vs control lacking treatment. The format is in vivo. As to the method:
The ability of the AB09 molecule to control useful soil bacteria metabolism has implications for building integrated technology systems and groundbreaking products. In the lab, AB09 was administered in combination with a nitrogen fixing bacterium to nitrogen free media.

Experiment [2] deals with soil consortia cultures. Description: Acetylene reduction method in soil consortia nitrogen free cultures. Type of experiment: cell-based. The following applies: 25 ug/mL, Burks-N, 72 h, control nd. As to the method:
One flask culture per soil received an AB09 treatment and the other received a control treatment of water. After 72 h of growth, 5 mL of each culture were analyzed for nitrogenase activity using the acetylene reduction method. […] Soil from agricultural areas was air dried and sieved with a 2 mm sieve. Five hundred milligrams of dried, sieved soil was added to 50 mL of Burks-N media in a 250 mL baffled flask. AB09 was added to 25 ug/mL and water was added in equivalent amounts for controls. Flasks were topped with a foam plug and incubated at 30 C, shaking at 100 rpm. After 72 h, 5 mL of the soil culture was transferred to 20 mL autosampler vials and analyzed for ethylene gas with the acetylene reduction technique and GC/MS as described as above.

Experiment [3] relates to soil consortia cultures. Description: 16S microbiome analysis of soil cultures grown in nitrogen free media. Type of experiment: cell-based. The following applies: Alpha soil culture, 25 ug/mL, 72 h, vs control. As to the method:
16S microbiome analysis was performed on soil-inoculated cultures grown in nitrogen free media in order to compare the effects of AB09 treatment vs control. […] The increased abundance of these diazotrophs in response to AB09 is consistent with the increased nitrogenase activity observed in Table 1 for Alpha soil. […] Known nitrogen fixing bacteria are indicated with an asterisk (*). Soil inoculated cultures (from Alpha Ag soil culture from Table 1) experience an increase in the relative abundance of diazotrophs when treated with AB09. Soil from agricultural areas was air dried and sieved with a 2 mm sieve. Five hundred milligrams of dried, sieved soil was added to 50 mL of nitrogen free media (Burks-N) in a 250 mL baffled flask. AB09 was added to 25 ug/mL and water was added in equivalent amounts for controls. Flasks were topped with a foam plug and incubated at 30 C, shaking at 100 rpm. DNA was extracted from 250 ul of the soil culture after 72 h of growth using the Qiagen PowerSoil Pro Kit (Cat No. 47014). DNA was checked on a gel and Qubit for quality and concentration, respectively. Ten nanograms of DNA was used in the 16S barcoding kit (SQK-RAB204) with the MinION sequencer. Fastq files from MinKnow were uploaded to Epi2Me and the 16S Oxford Nanopore Technologies kit (SQK-RAB204) was selected. […] Read counts were normalized to the total number of reads with an identified barcode.

Experiment [4] concerns soil consortia cultures with corn plant. Description: Phosphate solubilization with corn (foliar spray or soil applied) in soil consortia cultures. Type of experiment: in vivo, B73 Corn. The text has this:
In order to test the ability of AB09 to stimulate a phosphate solubilization phenotype when applied on plants versus directly into soil, a 3 week old corn plant was introduced into the soil consortia cultures. Approximately two weeks prior to the experiment, corn plants were removed from soil and roots were cleaned of potting soil. […] Corn leaves were sprayed with AB09 (roots protected with foil during spray application) and roots were placed in flasks of NBRIP liquid media and soil inoculant (FIG. 4B). The flasks were placed on a low speed orbital shaker under fluorescent lights and the media supernatant was tested for phosphate concentration after 24 h.
FIG. 4A illustrates that B73 Corn plants were grown until V3 growth stage, removed from soil, rinsed, and placed in tap water for 1.5 weeks to induce nutrient stress FIG. 4B illustrates that plants received either foliar (3 mL/plant using a fingertip sprayer) or soil applied treatments and were placed in 250 mL baffled flasks containing 50 mL NBRIP growth medium ([53 mM] Ca3(PO4)2) and 500 mg of 2 mm particle-sized soil. Flasks with treated corn and sterilized foam caps with were placed on orbital shakers at 100 RPM for 1 day at room temperature under fluorescent lights. FIG. 4C illustrates that orthophosphate was measured using the malachite-green phosphate method. […]

Entries after “also recorded” stand apart in the source; their conditions may differ.

Turning to `CC1=CC(Oc2c(C)occc2=O)OC1=O` (centres unmarked) [AB09, maltol lactone], the “expression of nif operon structural genes nifH, nifD and nifK over control cultures” value in experiment [1] was “increase”. Further, the “wheat growth on nitrogen free media” value in the experiment with wheat is given as “substantially greater; also recorded: more robust growth”. Further, the entries for the “% Ethylene (nitrogenase activity)” value in the experiment on soil consortia cultures [2] (Alpha soil), in the experiment with soil consortia cultures [2] (Bennet soil) and in the experiment on soil consortia cultures [2] (U of I soil) were 14.5%, 0.7% and 4.2%, respectively. Besides, the “abundance of nitrogen fixing bacteria Azotobacter chroococcum and Pseudomonas stutzeri” value with soil consortia cultures [3] is “increased the abundance”. The “phosphate solubilization, treatment directly applied to the soil supernatant” value in experiment [4] (corn roots in NBRIP with soil inoculant, after 24 h) is “increase”. Besides, the “phosphate solubilization, treatment applied to corn leaves as a foliar spray” value in experiment [4] (two treatment doses (25 or 50 ug/mL, 3 mL/plant), media supernatant after 24 h) is “increase”.
